Test results taken from patent EP0381533A2, “Cyclic monophosphates of purine and pyrimidine acyclonucleosides” (Merck & Co., Inc., priority 1989, dated 1990).

Test system: Eisenhart Human Cytomegalovirus
Assay: Human Cytomegalovirus (HCMV) Plaque Reduction Assay
Assay type: cell-based
Conditions: MRC-5 cells (human fetal lung); ~60 PFUs; plaques counted on day 6 post inoculation
Experimental: Activity against Human Cytomegalovirus is determined by employing the Human Cytomegalovirus (HCMV) Assay. Two tissue culture assays are available; Cell Protection and Plaque Reduction. Both assays utilize MRC-5 cells (human fetal lung) and Eisenhart Human Cytomegalovirus. The following is a description of the Cell Protection and Plaque Reduction Assays.
Eight-two fold dilutions are made of the compound to be tested. After the dilutions are made, 0.5 ml of each dilution is added to each of three decanted wells of MRC-5. Two wells are used to determine the antiviral activity of the compound to be tested and one well is used to determine toxicity. The MRC-5 plates are then decanted, and the wells are infected with 0.1 ml of Human Cytomegalovirus inoculum containing ∼60 PFUs. The plates are then adsorbed for 1 hour at 37°C/5% CO₂. After one hour the virus is removed from the wells and duplicate wells are refed with dilutions of the compound to be tested. The plates are then incubated at 37°C/5% CO₂. Plaques are counted microscopically on day 6 post inoculation.

| SMILES | Plag Red |
| --- | --- |
| Nc1nc2c(ncn2COC(CO)CO)c(=O)[nH]1 [2-amino-1,9-dihydro-9-((2-hydroxy-1-(hydroxymethyl)-ethoxy)methyl)-6H-Purin-6-one] | 0.78 µg/mL |
| Nc1nc2c(ncn2COC2COP(=O)(O)OC2)c(=O)[nH]1 (stereo not drawn) [Sodium 9-[(2-hydroxy-1,3,2-dioxophosphorinan-5-yl)-oxymethyl]guanine P-oxide] | 0.19 µg/mL |
| Nc1ccn(COC2COP(=O)(O)OC2)c(=O)n1 (stereo not drawn) [Sodium 1-[(2-hydroxy-1,3,2-dioxophosphorinan-5-yl)-oxymethyl]cytosine P-oxide] | 25.00 µg/mL |
